Experimental data: patent US20030232884A1, “New pharmaceutical formulation” (Critical Therapeutics, Inc., priority 2002, published 2003)

Experiment: Stability of ethyl pyruvate in three formulations as measured by pH change over time
Format: physicochemical
Description: Formulations comprising ethyl pyruvate at various concentrations ([…]) were prepared by dissolving ethyl pyruvate in either commercially available Ringer's Lactate solution (potassium chloride (0 to about 4 mM), sodium chloride (about 100 to about 156 mM), calcium chloride (about 2.5 mM to about 3.0 mM), and sodium lactate (about 25 mM to about 30 mM)) or Ringer-like solution (potassium chloride (0 to about 4 mM), sodium chloride (about 100 to about 156 mM) and calcium chloride (about 2.5 mM to about 3.0 mM)), or Intralipid™ (1 000 mL contain: purified soybean oil 100-300 g, purified egg phospholipids 12 g, glycerol anhydrous 22 g, water for injection q.s. ad 1 000 mL. pH was adjusted with sodium hydroxide to pH approximately 8. Osmolality was about 300 mOsm/kg water). Acidity of each solution was measured at 0, 5, 30 and 60 minutes, 2, 4, 24, and 48 hours after dissolution of ethyl pyruvate.

Work on CCOC(=O)C(C)=O [Ethyl Pyruvate, ethyl pyruvate] yielded a pH (Intralipid, EP 1 %, 0 min after dissolution) of 6.8, a pH (Intralipid, EP 1 %, 5 min after dissolution) of 6.8 and a pH (Intralipid, EP 1 %, 30 min after dissolution) of 6.8. For the same compound, the pH (Intralipid, EP 1 %, 60 min after dissolution) was 6.5, the pH (Intralipid, EP 1 %, 2 h after dissolution) was 6.5 and the pH (Intralipid, EP 1 %, 4 h after dissolution) was 6.5. It also gave a pH (Intralipid, EP 1 %, 24 h after dissolution) of 6.5, a pH (Intralipid, EP 1 %, 48 h after dissolution) of 6.5 and a pH (Intralipid, EP 5 %, 0 min after dissolution) of 6.8. For the same compound, the pH (Intralipid, EP 5 %, 5 min after dissolution) was 6.8, the pH (Intralipid, EP 5 %, 30 min after dissolution) was 6.5 and the pH (Intralipid, EP 5 %, 60 min after dissolution) was 6.0. For the same compound, the pH (Intralipid, EP 5 %, 2 h after dissolution) was 6.0, the pH (Intralipid, EP 5 %, 4 h after dissolution) was 6.0 and the pH (Intralipid, EP 5 %, 24 h after dissolution) was 5.5. It also gave a pH (Intralipid, EP 5 %, 48 h after dissolution) of 5.0, a pH (Intralipid, EP 10 %, 0 min after dissolution) of 6.8 and a pH (Intralipid, EP 10 %, 5 min after dissolution) of 6.5. It also gave a pH (Intralipid, EP 10 %, 30 min after dissolution) of 6.0, a pH (Intralipid, EP 10 %, 60 min after dissolution) of 6.0 and a pH (Intralipid, EP 10 %, 2 h after dissolution) of 6.0. It also gave a pH (Intralipid, EP 10 %, 4 h after dissolution) of 5.5, a pH (Intralipid, EP 10 %, 24 h after dissolution) of 4.0 and a pH (Intralipid, EP 10 %, 48 h after dissolution) of 4.0. The “drop in pH” value (Lactated Ringers Balanced Salt Solution, 1%, 5% and 10% by weight, over a 48 hour period) was “relatively reduced drop in pH”, the pH (Ringer' lactate, EP 1 %, 0 min after dissolution) was 6.0 and the pH (Ringer' lactate, EP 1 %, 5 min after dissolution) was 6.0. The pH (Ringer' lactate, EP 1 %, 30 min after dissolution) was 5.5, the pH (Ringer' lactate, EP 1 %, 60 min after dissolution) was 5.5 and the pH (Ringer' lactate, EP 1 %, 2 h after dissolution) was 5.2. For the same compound, the pH (Ringer' lactate, EP 1 %, 4 h after dissolution) was 5.2, the pH (Ringer' lactate, EP 1 %, 24 h after dissolution) was 5.2 and the pH (Ringer' lactate, EP 1 %, 48 h after dissolution) was 5.2. It also gave a pH (Ringer' lactate, EP 5 %, 0 min after dissolution) of 6.0, a pH (Ringer' lactate, EP 5 %, 5 min after dissolution) of 5.5 and a pH (Ringer' lactate, EP 5 %, 30 min after dissolution) of 5.3. It also gave a pH (Ringer' lactate, EP 5 %, 60 min after dissolution) of 5.2, a pH (Ringer' lactate, EP 5 %, 2 h after dissolution) of 5.2 and a pH (Ringer' lactate, EP 5 %, 4 h after dissolution) of 5.2. For the same compound, the pH (Ringer' lactate, EP 5 %, 24 h after dissolution) was 5.2, the pH (Ringer' lactate, EP 5 %, 48 h after dissolution) was 5.2 and the pH (Ringer' lactate, EP 10 %, 0 min after dissolution) was 6.0. The pH (Ringer' lactate, EP 10 %, 5 min after dissolution) was 5.3, the pH (Ringer' lactate, EP 10 %, 30 min after dissolution) was 5.3 and the pH (Ringer' lactate, EP 10 %, 60 min after dissolution) was 5.2. It also gave a pH (Ringer' lactate, EP 10 %, 2 h after dissolution) of 5.2, a pH (Ringer' lactate, EP 10 %, 4 h after dissolution) of 5.2 and a pH (Ringer' lactate, EP 10 %, 24 h after dissolution) of 5.2. The pH (Ringer' lactate, EP 10 %, 48 h after dissolution) was 5.0, the pH (Ringer' solution (no lactate), EP 1 %, 0 min after dissolution) was 6.5 and the pH (Ringer' solution (no lactate), EP 1 %, 5 min after dissolution) was 6.5. The pH (Ringer' solution (no lactate), EP 1 %, 30 min after dissolution) was 6.5, the pH (Ringer' solution (no lactate), EP 1 %, 60 min after dissolution) was 5.5 and the pH (Ringer' solution (no lactate), EP 1 %, 2 h after dissolution) was 5.5. It also gave a pH (Ringer' solution (no lactate), EP 1 %, 4 h after dissolution) of 5.5, a pH (Ringer' solution (no lactate), EP 1 %, 24 h after dissolution) of 5.5 and a pH (Ringer' solution (no lactate), EP 1 %, 48 h after dissolution) of 5.5. The pH (Ringer' solution (no lactate), EP 5 %, 0 min after dissolution) was 6.5, the pH (Ringer' solution (no lactate), EP 5 %, 5 min after dissolution) was 6.0 and the pH (Ringer' solution (no lactate), EP 5 %, 30 min after dissolution) was 6.0. For the same compound, the pH (Ringer' solution (no lactate), EP 5 %, 60 min after dissolution) was 5.2, the pH (Ringer' solution (no lactate), EP 5 %, 2 h after dissolution) was 5.2 and the pH (Ringer' solution (no lactate), EP 5 %, 4 h after dissolution) was 4.0. For the same compound, the pH (Ringer' solution (no lactate), EP 5 %, 24 h after dissolution) was 2.0, the pH (Ringer' solution (no lactate), EP 5 %, 48 h after dissolution) was 2.0 and the pH (Ringer' solution (no lactate), EP 10 %, 0 min after dissolution) was 6.5. The pH (Ringer' solution (no lactate), EP 10 %, 5 min after dissolution) was 5.5, the pH (Ringer' solution (no lactate), EP 10 %, 30 min after dissolution) was 5.3 and the pH (Ringer' solution (no lactate), EP 10 %, 60 min after dissolution) was 5.2. For the same compound, the pH (Ringer' solution (no lactate), EP 10 %, 2 h after dissolution) was 5.2, the pH (Ringer' solution (no lactate), EP 10 %, 4 h after dissolution) was 2.0 and the pH (Ringer' solution (no lactate), EP 10 %, 24 h after dissolution) was 2.0. The pH (Ringer' solution (no lactate), EP 10 %, 48 h after dissolution) was 2.0 and the “stability as indicated by the pH readings” value (in Ringer's Lactate solution) was “remains stable”.
